Data reported in US12122779B2, “Pyrrolo-pyridazine derivatives as muscarinic M1 receptor positive allosteric modulators” (SUVEN LIFE SCIENCES LIMITED, priority 2018, dated 2024).

Key:
[1] = Rodent brain penetration study; assay type: in vivo, Male Wistar rats; settings: male, Wistar, brain and plasma, po; rat, 3 mg/kg p.o., brain-plasma ratio; read-out: Single dose Rat Brain Penetration (Cb/Cp) at 3 mg/kg, p.o.
Procedure: Rodent Brain Penetration Study
Male Wistar rats (260±40 grams) were used as experimental animals. Three animals were housed in each cage. Animals were given water and food ad libitum throughout the experiment and maintained on a 12 h light/dark cycle.
Brain penetration was determined in discrete manner in rats. One day prior to dosing day, male Wistar rats were acclimatized and randomly grouped according to their weight. At each time point (0.50, 1 and 2 h) n=3 animals were used.
The test compounds were suitably preformulated and administered orally at (free base equivalent) 3 mg/kg. Blood samples were removed via cardiac puncture by using isoflurane anesthesia. The animals were sacrificed to collect brain tissue. Plasma was separated and brain samples were homogenized and stored frozen at −20° C. until analysis. The concentrations of the test compounds in plasma and brain were determined using LC-MS/MS method.
The test compounds were quantified in plasma and brain homogenate by qualified LC-MS/MS method using suitable extraction technique. The test compounds were quantified in the calibration range of 1-500 ng/mL in plasma and brain homogenate. Study samples were analyzed using calibration samples in the batch and quality control samples spread across the batch. Extent of brain-plasma ratio (Cb/Cp) was calculated.

[2] = Rodent pharmacokinetic study; assay type: in vivo, Male Wistar rats; settings: male, Wistar, plasma, rat
Procedure: Rodent Pharmacokinetic Study
Male Wistar rats (260±50 grams) were used as experimental animals. Animals were housed individually in polypropylene cage. Two days prior to study, male Wistar rats were anesthetized with isoflurane for surgical placement of jugular vein catheter. Rats were randomly divided for oral (3 mg/kg) and intravenous (1 mg/kg) dosing (n=3/group) and fasted overnight before oral dosing (p.o.). However, rats allocated to intravenous dosing food and water was provided ad libitum.
At pre-determined point, blood was collected through jugular vein and replenished with an equivalent volume of normal saline. Collected blood was transferred into a labeled eppendorf tube containing 10 μL of heparin as an anticoagulant. Typically blood samples were collected at following time points: 0.08, 0.25, 0.5, 1, 2, 4, 6, 8, and 24 h post dose. Blood was centrifuged at 4000 rpm for 10 minutes. Plasma was separated and stored frozen at −80° C. until analysis. The concentrations of the test compounds were quantified in plasma by qualified LC-MS/MS method using suitable extraction technique. The test compounds were quantified in the calibration range around 1-1000 ng/mL in plasma. Study samples were analyzed using calibration samples in the batch and quality control samples spread across the batch.
Pharmacokinetic parameters Cmax, AUCt, T1/2, Clearance and Bioavailability (F) were calculated by non-compartmental model using standard non-compartmental model by using Phoenix WinNonlin 6.0.4 version Software package.

Male Swiss mice = experiment: Effect on colonic transit; assay type: in vivo; settings: doses of 1 and 3 mg/kg, p.o., carmine dye, 3 hours after dye
Procedure: Effect on Colonic Transit
Male Swiss mice of body weight ˜20-30 g were fasted for 16 hours with free access to water prior to the experiment. Mice were administrated example 1 or vehicle, 30 min after administration of 0.5 ml of carmine dye solution. Mice were sacrificed 3 hours after dye administration and the distance traveled by the dye from proximal colon was measured. Colonic transit was expressed as % colonic transit=100×(length of colon in which carmine moved/total length of colon).

[3] = molecular target: T1, recombinant human Muscarinic M1 receptor (Homo sapiens, UniProt P11229); experiment: Allosteric potency EC50 for muscarinic M1 receptor, CHO pCRE-Luc reporter cell-based assay with EC20 of acetylcholine; settings: CHO cells, luciferase activity, in presence of EC20 of acetylcholine, 4 hours
T1 sequence (P11229 1-460): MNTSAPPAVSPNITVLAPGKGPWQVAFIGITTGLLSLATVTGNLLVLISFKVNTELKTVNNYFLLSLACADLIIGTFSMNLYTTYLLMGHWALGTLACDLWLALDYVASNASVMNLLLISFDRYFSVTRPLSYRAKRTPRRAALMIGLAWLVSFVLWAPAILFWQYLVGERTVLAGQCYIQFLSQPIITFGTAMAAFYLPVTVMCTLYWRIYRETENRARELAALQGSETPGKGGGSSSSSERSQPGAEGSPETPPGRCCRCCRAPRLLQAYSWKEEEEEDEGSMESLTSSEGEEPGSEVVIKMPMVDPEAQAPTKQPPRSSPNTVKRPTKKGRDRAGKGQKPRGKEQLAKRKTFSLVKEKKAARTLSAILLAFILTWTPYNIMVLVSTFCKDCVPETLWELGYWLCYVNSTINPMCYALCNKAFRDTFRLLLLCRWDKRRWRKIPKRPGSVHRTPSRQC
Procedure: Determination of Allosteric Potency EC50 Values for Muscarinic M1 Receptor
A stable CHO cell line expressing recombinant human Muscarinic M1 receptor and pCRE-Luc reporter system was used for cell-based assay. The assay offers a non-radioactive based approach to determine binding of a compound to GPCRs. In this specific assay, the level of intracellular cyclic AMP which is modulated by activation or inhibition of the receptor is measured. The recombinant cells harbor luciferase reporter gene under the control of cyclic AMP response element.
The above cells were grown in 96 well clear bottom white plates in Hams F12 medium containing 10% fetal bovine serum (FBS). Prior to the addition of compounds or standard agonist, cells were serum starved overnight. Increasing concentrations of test compounds were added along with EC20 of acetylcholine in OptiMEM medium to the cells. The incubation was continued at 37° C. in CO2 incubator for 4 hours. Medium was removed and cells were washed with phosphate buffered saline. The cells were lysed and luciferase activity was measured in a Luminometer. Luminescence units were plotted against the compound concentrations using Graphpad software.

**Q.** For Cn1cc(-c2ccc(Cc3cc(C(=O)N[C@H]4CCOC[C@@H]4O)nn4cccc34)cc2)cn1 (stereo in doubt) [Example 38, N-[3-Hydroxy-tetrahydropyran-4-yl] 4-[4-(1-methyl-1H-pyrazol-4-yl)-benzyl]-pyrrolo[1,2-b]pyridazine-2-carboxamide], which Kp [1] is on record?
**A.** 0.15 ± 0.02

**Q.** What about the AUC(0-t) ([2]; intravenous (bolus), 1 mg/kg) of the same compound?
**A.** 7240 ± 890 ng·h/mL

**Q.** What about the clearance ([2]; intravenous (bolus), 1 mg/kg) of the same compound?
**A.** 2.31 ± 0.29 mL/min/kg

**Q.** What about the half-life ([2]; intravenous (bolus), 1 mg/kg) of the same compound?
**A.** 3.42 ± 0.29 h

**Q.** And the bioavailability ([2]; oral 3 mg/kg vs intravenous 1 mg/kg, read-out: F (%) Bioavailability)?
**A.** 60 ± 4%

**Q.** And the AUC(0-t) ([2]; oral (gavage), 3 mg/kg)?
**A.** 13000 ± 954 ng·h/mL

**Q.** And the Cmax ([2]; oral (gavage), 3 mg/kg)?
**A.** 1860 ± 185 ng/mL

**Q.** And the half-life ([2]; oral (gavage), 3 mg/kg)?
**A.** 3.74 ± 0.15 h

**Q.** What about the Colonic transit (Male Swiss mice) of the same compound?
**A.** increased the colonic transit

**Q.** And the EC50 [3]?
**A.** 692 nM
